According to patent publication US20240335569A1, “FIBROBLAST ACTIVATION PROTEIN INHIBITORS AND USE THEREOF” (3 B PHARMACEUTICALS GMBH, priority 2021, published 2024):

Experiments:
[1] = molecular target: FAP-expressing human WI-38 fibroblasts (Homo sapiens (Human), UniProt Q12884); experiment: FACS binding assay (competitive, Cy5-labeled 3BP-2935)
Description: In order to determine binding of compounds according to the present invention to FAP-expressing cells, a competitive FACS binding assay was established. […] Cells were diluted in FACS buffer to a final concentration of 100.000 cells per ml and 200 μl of the cell suspension are transferred to a u-shaped non-binding 96-well plate (Greiner). […] Cell were washed twice with FACS buffer (see above) and resuspended in 200 μl FACS buffer. Cells were analyzed in an Attune NxT flow cytometer (Thermo Fisher Scientific). Median fluorescence intensities (Cy5 channel) were calculated by Attune NxT software and plotted against test compound concentrations. Four parameter logistic (4PL) curve fitting and pIC50 calculations were performed using ActivityBase software.

recombinant human PREP = recombinant human PREP (Homo sapiens (Human), UniProt P48147); experiment: PREP protease activity assay; format: biochemical
Chain of recombinant human PREP (P48147 whole entry): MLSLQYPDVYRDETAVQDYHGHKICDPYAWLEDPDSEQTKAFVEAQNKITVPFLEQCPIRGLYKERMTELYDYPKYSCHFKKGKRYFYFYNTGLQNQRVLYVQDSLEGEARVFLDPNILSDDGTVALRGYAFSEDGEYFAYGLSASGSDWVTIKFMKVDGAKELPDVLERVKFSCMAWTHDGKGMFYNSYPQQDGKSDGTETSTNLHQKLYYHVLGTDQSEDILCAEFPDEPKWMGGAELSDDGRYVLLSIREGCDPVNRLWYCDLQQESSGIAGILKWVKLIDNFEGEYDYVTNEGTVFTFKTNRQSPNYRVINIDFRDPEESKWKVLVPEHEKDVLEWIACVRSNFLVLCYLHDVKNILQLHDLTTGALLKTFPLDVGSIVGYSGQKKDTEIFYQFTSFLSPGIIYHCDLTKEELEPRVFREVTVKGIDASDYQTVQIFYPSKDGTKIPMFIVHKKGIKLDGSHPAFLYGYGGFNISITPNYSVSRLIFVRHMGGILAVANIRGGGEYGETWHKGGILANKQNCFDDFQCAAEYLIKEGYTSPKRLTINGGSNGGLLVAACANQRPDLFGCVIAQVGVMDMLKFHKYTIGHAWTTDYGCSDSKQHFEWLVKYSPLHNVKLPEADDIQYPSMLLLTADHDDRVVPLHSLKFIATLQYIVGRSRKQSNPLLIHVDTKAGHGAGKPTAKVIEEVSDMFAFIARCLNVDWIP
Description: (§1) The PREP activity assay was performed using the FACS buffer (PBS including 1% FBS, Sigma-Aldrich, Cat #D8537). […] The DPP4 activity assay was performed in DPP assay buffer (25 mM Tris, pH 8.0). […] Four parameter logistic (4PL) curve fitting and pIC50 calculations were performed using ActivityBase software.

Recombinant human DPP4 = Recombinant human DPP4 (Homo sapiens (Human), UniProt P27487); experiment: DPP4 protease activity assay; format: biochemical
Chain of Recombinant human DPP4 (P27487 whole entry): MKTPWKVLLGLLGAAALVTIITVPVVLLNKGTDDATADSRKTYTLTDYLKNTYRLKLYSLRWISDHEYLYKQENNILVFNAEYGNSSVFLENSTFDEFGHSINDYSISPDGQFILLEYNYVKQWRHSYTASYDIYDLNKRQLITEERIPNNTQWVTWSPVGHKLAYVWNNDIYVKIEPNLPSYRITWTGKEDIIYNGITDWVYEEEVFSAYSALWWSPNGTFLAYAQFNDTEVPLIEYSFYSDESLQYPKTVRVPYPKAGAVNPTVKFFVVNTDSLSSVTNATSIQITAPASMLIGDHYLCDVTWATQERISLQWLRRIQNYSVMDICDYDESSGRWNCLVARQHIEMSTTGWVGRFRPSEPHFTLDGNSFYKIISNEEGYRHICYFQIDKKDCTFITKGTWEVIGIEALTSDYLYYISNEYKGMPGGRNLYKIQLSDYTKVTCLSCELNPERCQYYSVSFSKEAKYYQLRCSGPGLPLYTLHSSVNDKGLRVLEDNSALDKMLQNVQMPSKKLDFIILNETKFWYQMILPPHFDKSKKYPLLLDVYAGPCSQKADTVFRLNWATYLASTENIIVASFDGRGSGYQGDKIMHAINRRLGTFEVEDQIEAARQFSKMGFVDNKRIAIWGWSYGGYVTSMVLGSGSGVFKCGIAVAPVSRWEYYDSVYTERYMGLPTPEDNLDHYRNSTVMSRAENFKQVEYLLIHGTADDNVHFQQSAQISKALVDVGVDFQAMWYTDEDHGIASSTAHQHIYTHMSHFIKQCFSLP
Description: as §1

Human recombinant FAP [2] = molecular target: T1, Human recombinant FAP (Homo sapiens (Human), UniProt Q12884); experiment: FAP protease activity assay (human), FRET-based; format: biochemical
Description: (§2) In order to determine the inhibitory activity a FRET-based FAP protease activity assay was established.
Four parameter logistic (4PL) curve fitting and pIC50 calculations were performed using ActivityBase software (IDBS).
Target sequence in this assay (Q12884 26-760): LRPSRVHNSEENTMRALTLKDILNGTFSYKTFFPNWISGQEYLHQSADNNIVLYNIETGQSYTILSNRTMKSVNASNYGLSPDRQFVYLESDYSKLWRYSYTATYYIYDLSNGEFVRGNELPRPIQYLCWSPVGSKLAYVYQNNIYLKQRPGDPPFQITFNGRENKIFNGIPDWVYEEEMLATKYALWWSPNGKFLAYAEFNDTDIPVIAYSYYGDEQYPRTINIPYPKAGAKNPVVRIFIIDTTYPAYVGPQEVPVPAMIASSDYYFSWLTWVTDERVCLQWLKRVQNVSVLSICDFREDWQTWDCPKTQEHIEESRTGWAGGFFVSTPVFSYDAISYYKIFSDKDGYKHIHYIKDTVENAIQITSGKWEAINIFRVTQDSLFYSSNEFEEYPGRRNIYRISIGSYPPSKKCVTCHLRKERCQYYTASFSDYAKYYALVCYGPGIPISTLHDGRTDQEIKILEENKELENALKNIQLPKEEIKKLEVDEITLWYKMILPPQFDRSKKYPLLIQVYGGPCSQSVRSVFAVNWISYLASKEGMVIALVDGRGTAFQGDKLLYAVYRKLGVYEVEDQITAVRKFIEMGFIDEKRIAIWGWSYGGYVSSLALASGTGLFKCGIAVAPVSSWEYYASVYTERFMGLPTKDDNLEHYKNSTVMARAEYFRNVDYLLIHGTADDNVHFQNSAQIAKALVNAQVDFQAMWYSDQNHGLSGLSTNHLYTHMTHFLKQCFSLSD

Human recombinant FAP [3] = molecular target: T1, Human recombinant FAP; experiment: Surface plasmon resonance assay (Biacore T200, SCK); format: binding; settings: for pKD (Biacore): SPR; for HL [min] (Biacore): SPR dissociation half-life
Description: Surface plasmon resonance studies were performed using a Biacore™ T200 SPR system (Cytiva, formerly GE Healthcare). Briefly, polarized light is directed towards a gold-labeled sensor surface, and minimum intensity reflected light is detected. The angle of reflected light changes as molecules bind and dissociate. […] Test compounds are contacted with the loaded surface, and a real-time interaction profile with the FAP ligand is recorded in a sensorgram. In real-time, the association and dissociation of a binding interaction is measured, enabling calculation of association and dissociation rate constants and the corresponding affinity constants. Importantly, a background response is generated due to the difference in the refractive indices of the running and sample buffers, as well as unspecific binding of the test compounds to the flow cell surface. This background is measured and subtracted by running the sample on a control flow cell coated with the same density of capture antibody in the absence of immobilized FAP. Furthermore, baseline drift correction of the binding data is performed, which is caused by slow dissociation of the captured FAP from the immobilized antibody. This drift is measured by injecting running buffer through a flow cell with the antibody and FAP immobilized to the sensor surface.
Biacore™ CM5 sensor chips were used. […] A 150 μL aliquot was transferred into plastic vials and placed into the sample rack of the Biacore™ T200 instrument. Amine Coupling Kit Reagent solutions were transferred into plastic vials and placed into the sample rack: 90 μL of 0.4 M 1-ethyl-3-(3-dimethylaminopropyl) carbodiimide (EDC), and 90 μL of 0.1 M N-hydroxysuccinimide (NHS). A 130 μL aliquot of 1 M ethanolamine-HCl, pH 8.5, was transferred into plastic vials and placed into the sample rack. The Biacore™ liquid system was set-up as follows: Separate bottles containing distilled water (1 L), Running Buffer (500 mL), as well as an empty bottle for waste were placed onto the buffer tray. A preinstalled program for immobilization was used, with an immobilization level of 7000 RU. Immobilization was performed at 25° C. The immobilization procedure of anti-FAP antibodies was performed, as described in the Table 4.
Human recombinant FAP was diluted in Running Buffer to a final concentration of 20 μg/mL. A 100 μL aliquot of human FAP-Working-Solution was transferred into plastic vials and placed into a sample rack. A 0.5 mM Compound-Stock-Solution was prepared by dissolving each compound in DMSO. For each test compound, Compound-Stock-Solutions were diluted in Running Buffer (HBST) at 500 nM and further diluted with HBST-DMSO Buffer (0.1% DMSO). SPR binding analyses for binary complexes were performed in SCK mode at 25° C. Following three SCK measurements, a baseline drift was assessed by injecting running buffer through a flow cell, with the antibody and FAP immobilized to the sensor surface.
For each test compound, SPR raw data in the form of resonance units (RU) were plotted as sensorgrams using the Biacore™ T200 control software. The signal from the blank sensorgram was subtracted from that of the test compound sensorgram (blank corrected). The blank corrected sensorgram was corrected for baseline drift by subtracting the sensorgram of a SCK run without the test compound (running buffer only). The association rate (kon), dissociation rate (koff), dissociation constant (KD), and t1/2 were calculated from Blank-normalized SPR data using the 1:1 Langmuir binding model from the Biacore™ T200 evaluation software. Raw data and fit results were imported as text files in IDBS. The pKD value (negative decadic logarithm of dissociation constant) was calculated in the IDBS excel template.
Target sequence in this assay (Q12884 whole entry): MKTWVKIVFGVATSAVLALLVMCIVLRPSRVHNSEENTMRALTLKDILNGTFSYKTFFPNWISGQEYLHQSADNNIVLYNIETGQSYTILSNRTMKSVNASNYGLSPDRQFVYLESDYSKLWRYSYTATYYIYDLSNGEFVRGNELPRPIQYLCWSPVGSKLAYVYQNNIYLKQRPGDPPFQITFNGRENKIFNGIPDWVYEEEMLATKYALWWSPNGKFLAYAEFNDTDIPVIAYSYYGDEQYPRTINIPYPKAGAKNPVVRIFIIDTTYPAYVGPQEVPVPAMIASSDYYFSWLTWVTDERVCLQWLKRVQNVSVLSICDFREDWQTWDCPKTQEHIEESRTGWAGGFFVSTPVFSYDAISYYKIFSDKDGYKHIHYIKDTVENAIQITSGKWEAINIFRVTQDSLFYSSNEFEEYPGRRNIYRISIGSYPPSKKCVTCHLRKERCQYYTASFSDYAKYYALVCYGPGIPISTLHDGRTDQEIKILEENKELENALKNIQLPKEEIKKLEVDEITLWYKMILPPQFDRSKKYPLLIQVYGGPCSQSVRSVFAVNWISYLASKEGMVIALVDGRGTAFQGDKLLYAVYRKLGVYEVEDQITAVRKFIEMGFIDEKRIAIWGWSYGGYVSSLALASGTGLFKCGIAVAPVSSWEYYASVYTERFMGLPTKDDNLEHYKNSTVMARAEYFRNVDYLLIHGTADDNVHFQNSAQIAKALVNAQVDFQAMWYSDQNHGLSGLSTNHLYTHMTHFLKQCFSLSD

Recombinant mouse FAP = Recombinant mouse FAP (Mus musculus (Mouse), UniProt P97321); experiment: FAP protease activity assay (mouse), FRET-based; format: biochemical
Chain of Recombinant mouse FAP (P97321 whole entry): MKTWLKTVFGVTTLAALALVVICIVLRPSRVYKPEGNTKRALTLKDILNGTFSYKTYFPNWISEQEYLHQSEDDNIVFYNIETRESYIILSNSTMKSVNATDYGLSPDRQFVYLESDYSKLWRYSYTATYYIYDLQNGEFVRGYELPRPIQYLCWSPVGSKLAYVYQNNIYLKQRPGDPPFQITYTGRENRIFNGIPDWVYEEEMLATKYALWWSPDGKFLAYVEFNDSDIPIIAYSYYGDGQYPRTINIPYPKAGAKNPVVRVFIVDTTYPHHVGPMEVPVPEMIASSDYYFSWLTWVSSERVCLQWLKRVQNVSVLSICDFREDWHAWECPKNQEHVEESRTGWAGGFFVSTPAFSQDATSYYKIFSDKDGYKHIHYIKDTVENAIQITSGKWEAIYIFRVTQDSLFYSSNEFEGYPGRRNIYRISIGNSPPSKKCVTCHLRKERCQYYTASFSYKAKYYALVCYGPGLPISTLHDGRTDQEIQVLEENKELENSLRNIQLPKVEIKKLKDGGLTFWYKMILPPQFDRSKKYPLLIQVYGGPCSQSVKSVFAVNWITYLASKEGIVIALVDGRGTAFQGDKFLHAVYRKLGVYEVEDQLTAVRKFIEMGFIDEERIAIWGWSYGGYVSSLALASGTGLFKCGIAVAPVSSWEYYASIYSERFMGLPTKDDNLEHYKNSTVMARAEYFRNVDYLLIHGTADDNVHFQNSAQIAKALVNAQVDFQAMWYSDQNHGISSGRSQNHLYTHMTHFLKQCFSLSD
Description: as §2
Four parameter logistic (4PL) curve fitting and pIC50 calculations were performed using ActivityBase software.

HT-29 cells = experiment: Stability in the presence of tumor cells (HT-29), FAP IC50 of supernatants; format: in vitro ADME, human
Description: Cells were cultured in McCoys's 5A modified medium (Biochrom, #F1015) including 10% fetal bovine serum (FBS), 2 mM L-glutamine, 100 U/ml penicillin and 100 μg/mL streptomycin (growth medium). […] 1 mL of the cell suspension were seeded in 24-well plates and incubated overnight at 37° C. and 5% CO2. The next day, cells were washed twice and growth medium was exchanged against DMEM without phenol red (Biochrom, #F0475) including 2 mM L-glutamine. Test compound was diluted in DMEM without phenol red (Biochrom, #F0475) including 2 mM L-glutamine. 400 μL of a 10 μM solution of the test compound was incubated for 24 hours at 37° C. and 5% CO2 in the presence of cells as well as in control wells (without cells) of the same 24-well plate.
25 μL of a 30 μM substrate solution, diluted in assay buffer, was added. All solutions were equilibrated at 37° C. prior to use. […] RFU/sec was calculated by SoftMax Pro software and plotted against test compound concentration. Four parameter logistic (4PL) curve fitting and IC50/pIC50 calculations were performed using GraphPad Prism 9.1 software.
The stability of exemplary compounds was further assessed in the presence of a variety of human cell lines from different tissue origins. […] Compounds were diluted in DMEM without phenol red (Biochrom, #F0475) including 2 mM L-glutamine. 400 μL of a 10 μM solution of the test compound was incubated for 24 hours at 37° C. and 5% CO2 in the presence of cells as well as in control wells (without cells) of the same 24-well plate. IC50/pIC50 determination of the supernatants was performed as described above.

[4] = FAP-expressing WI-38 fibroblasts
[5] = recombinant human FAP, FRET protease activity
[6] = recombinant mouse FAP, FRET protease activity
[7] = recombinant mouse FAP protease activity
[8] = human FAP protease activity, FRET

Chain of FAP-expressing human WI-38 fibroblasts (Q12884 whole entry): as the sequence (Q12884 whole entry) above

Compound | pIC50 (FACS) [1, 4] | pIC50 (DPP4) (Recombinant human DPP4) | pIC50 (Activity) (Human recombinant FAP [2]; [5]) | pKD (Biacore) (Human recombinant FAP [3]) | HL [min] (Biacore) (Human recombinant FAP [3]) | pIC50 (mouseFAP) (Recombinant mouse FAP; [7]) | pIC50 (FACS) ([1]; WI-38 fibroblasts) | pIC50 (Activity) (Human recombinant FAP [2]; [8]) | also measured
O=C(NCC(=O)N1CCC[C@H]1C(=O)c1nccs1)c1ccnc2ccccc12 [Compound 3BP-3206] | 7 | <6 | 7.3 | 7.9 | 0.3 |  |  |  | pIC50 (PREP) (recombinant human PREP): 7.6
CS(=O)(=O)c1cccc(-c2ccc3nccc(C(=O)NCC(=O)N4CCC[C@H]4C#N)c3c2)c1 [Compound 3BP-3132] | 8.4 | <6 | 9 | 9.4 | 2.5 |  |  |  | pIC50 (PREP) (recombinant human PREP): <6
CS(=O)(=O)c1cccc(-c2ccc3c(C(=O)NCC(=O)N4CCC[C@H]4C#N)ccnc3c2)c1 [Compound 3BP-3133] | 8.2 | <6 | 8.7 | 9.3 | 5.7 |  |  |  | pIC50 (PREP) (recombinant human PREP): <6
N#C[C@@H]1CC(F)(F)CN1C(=O)CNC(=O)c1ccnc2ccc(OCCCN3CCN(C(=O)CN4CCN5CCN6CCN(CC4)CC(=O)[O][Eu]([O]C(=O)C6)[O]C(=O)C5)CC3)cc12 [Compound 3BP-3663] | 8.6 |  | 9.3 |  |  |  |  |  | pIC50 (mouseFAP) (Recombinant mouse FAP; [6]): 9.1
N#C[C@@H]1CCCN1C(=O)CNC(=O)c1ccnc2ccc(-c3ccc(C(=O)O)cc3)cc12 [Compound 3BP-3295] |  |  |  |  | 11 |  |  |  | IC50 (recombinant human PREP): > 1000 nM
CS(=O)(=O)c1ccc(-c2ccc3nccc(C(=O)NCC(=O)N4C[C@@H](F)C[C@H]4C#N)c3c2)cc1 [Compound 3BP-3774] |  | <6 |  |  |  | 9.2 | 8.8 | 9.2 | 
Cc1cc2nccc(C(=O)NCC(=O)N3CC(F)(F)C[C@H]3C#N)c2cc1-c1ccc(S(C)(=O)=O)cc1 [Compound 3BP-4026] |  |  |  |  |  | 8.8 | 8.9 | 9.3 | 
Cc1cc(S(C)(=O)=O)ccc1-c1ccc2nccc(C(=O)NCC(=O)N3CC(F)(F)C[C@H]3C#N)c2c1 [Compound 3BP-3952] |  | 6.1 |  |  |  | 8.8 | 8.7 | 9.3 | 
N#C[C@@H]1CCCN1C(=O)CNC(=O)c1ccnc2ccc(-c3ccc(C(=O)NCCCNC(O)CN4CCN5CCN6CCN(CC4)CC(=O)[O][Eu]([O]C(=O)C6)[O]C(=O)C5)cc3)cc12 (some centres unmarked) [Compound 3BP-3830] |  | <6 |  | 10 | 64 | 8.7 | 8.5 | 9.3 | 
CS(=O)(=O)c1cc(F)c(-c2ccc3nccc(C(=O)NCC(=O)N4CCC[C@H]4C#N)c3c2)c(F)c1 [Compound 3BP-3828] |  | <6 |  |  |  | 9 | 8.5 | 9.3 | 
Cc1cc(S(C)(=O)=O)ccc1-c1ccc2nccc(C(=O)NCC(=O)N3CCC[C@H]3C#N)c2c1 [Compound 3BP-3953] |  | <6 |  |  |  | 8.9 | 7.9 | 9.2 | 
N#C[C@@H]1CC(F)(F)CN1C(=O)CNC(=O)c1ccnc2ccc(-c3ccc(C(=O)NCCCNC(O)CN4CCN5CCN6CCN(CC4)CC(=O)[O][Eu]([O]C(=O)C6)[O]C(=O)C5)cc3)cc12 (some centres unmarked) [Compound 3BP-3829] |  | <6 |  | >10.5 | >150 | 8.9 | 8.9 | 9.4 | 
N#C[C@@H]1CC(F)(F)CN1C(=O)CNC(=O)c1ccnc2ccc(OCCCN3CCN(C(=O)CN4CCN5CCN6CCN(CC4)CC(=O)[O][Lu]([O]C(=O)C6)[O]C(=O)C5)CC3)cc12 [Compound 3BP-3469] | 8.7 | <6 | 9.3 | 10.2 | 35.5 |  |  |  | pIC50 (mouseFAP) (Recombinant mouse FAP; [6]): 9.1; pIC50 (incubation in cell medium w/o HT-29) (HT-29 cells; 10 μM compound, 24 hours at 37° C. in control wells without cells, supernatant tested on recombinant human FAP): 9.2; pIC50 (incubation in the presence of HT-29 cells) (HT-29 cells; 10 μM compound, 24 hours at 37° C. with HT-29 cells, supernatant tested on recombinant human FAP): 8.3; Residual activity after incubation with HT-29 cells for 24 hours (%) (HT-29 cells; HT-29 cells, 24 hours): 13%
CS(=O)(=O)c1ccc(-c2ccc3nccc(C(=O)NCC(=O)N4C[C@H](F)C[C@H]4C#N)c3c2)cc1 [Compound 3BP-3773] |  | <6 |  |  |  | 8 | 7.3 | 8.5 | 
N#C[C@@H]1CCCN1C(=O)CNC(=O)c1ccnc2cc(-c3cccc(C(=O)O)c3)ccc12 [Compound 3BP-3293] | 8.6 | <6 | 8.8 |  |  |  |  |  | pIC50 (PREP) (recombinant human PREP): <6
